Assay results from paper PMC4710522, “A Novel Triazolopyridine-Based Spleen Tyrosine Kinase Inhibitor That Arrests Joint Inflammation” (PLoS ONE, 2016).
Values joined by “and” are separate entries in the source; they are usually repeats but may differ in a detail not shown here. Identical values can stand only once.

Legend:
Test in all cases: SelectScreen kinase assay
Format in all cases: biochemical
HIPK2_h = target: T1, HIPK2_h (Homo sapiens, UniProt Q9H2X6); settings: KM ATP, read-out: % control
T1 construct: purchased Life Technologies (Invitrogen) SelectScreen, Z'-LYTE / Adapta
Procedure, shortened: (§1)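 ATP level varied by condition (KM for the specific enzyme, 10 µM or 100 µM), while compound stayed at 3 µM; % control calculated against uninhibited DMSO wells.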

CK1-gamma1_h = target: T2, CK1-gamma1_h (Homo sapiens, UniProt Q9HCP0); settings: KM ATP, read-out: % control
T2 construct: purchased Life Technologies (Invitrogen) SelectScreen, Z'-LYTE / Adapta
Procedure, shortened: as §1

LYN-A_h = LYN-A_h (Homo sapiens, UniProt P07948)
Chain of LYN-A_h (P07948 whole entry): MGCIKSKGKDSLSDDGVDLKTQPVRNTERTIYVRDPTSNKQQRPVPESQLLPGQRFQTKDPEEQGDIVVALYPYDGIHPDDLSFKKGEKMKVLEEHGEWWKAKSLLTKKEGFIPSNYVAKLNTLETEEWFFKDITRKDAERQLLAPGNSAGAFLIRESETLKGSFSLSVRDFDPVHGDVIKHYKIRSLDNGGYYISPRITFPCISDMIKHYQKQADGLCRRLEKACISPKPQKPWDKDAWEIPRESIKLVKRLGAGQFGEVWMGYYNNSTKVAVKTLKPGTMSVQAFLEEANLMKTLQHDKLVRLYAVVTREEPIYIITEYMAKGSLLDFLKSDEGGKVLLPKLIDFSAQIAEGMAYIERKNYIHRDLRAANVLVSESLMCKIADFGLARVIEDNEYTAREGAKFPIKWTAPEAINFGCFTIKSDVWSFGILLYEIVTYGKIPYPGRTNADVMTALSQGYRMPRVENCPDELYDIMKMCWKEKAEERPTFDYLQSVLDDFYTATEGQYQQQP
Procedure, shortened: as §1

CaMKIV_h = target: T3, CaMKIV_h (Homo sapiens, UniProt Q16566); settings: KM ATP, read-out: % control
T3 construct: purchased Life Technologies (Invitrogen) SelectScreen, Z'-LYTE / Adapta
Procedure, shortened: as §1

MST4_h = target: T4, MST4_h (Homo sapiens, UniProt Q9P289); settings: KM ATP, read-out: % control
T4 construct: purchased Life Technologies (Invitrogen) SelectScreen, Z'-LYTE / Adapta
Procedure, shortened: as §1

CDK7_h = target: T5, CDK7_h (Homo sapiens, UniProt P50613); settings: KM ATP, read-out: % control
T5 construct: purchased Life Technologies (Invitrogen) SelectScreen, Z'-LYTE / Adapta
Procedure, shortened: as §1

Fer_h = target: T6, Fer_h (Homo sapiens, UniProt P16591); settings: KM ATP, read-out: % control
T6 construct: purchased Life Technologies (Invitrogen) SelectScreen, Z'-LYTE / Adapta
Procedure, shortened: as §1

PKD3_h = target: T7, PKD3_h (Homo sapiens, UniProt O94806); settings: KM ATP, read-out: % control
T7 construct: purchased Life Technologies (Invitrogen) SelectScreen, Z'-LYTE / Adapta
Procedure, shortened: as §1

IGF-1R_h = target: T8, IGF-1R_h (Homo sapiens, UniProt P08069); settings: KM ATP, read-out: % control
T8 construct: purchased Life Technologies (Invitrogen) SelectScreen, Z'-LYTE / Adapta
Procedure, shortened: as §1

ZAP-70_h = ZAP-70_h (Homo sapiens, UniProt P43403)
Chain of ZAP-70_h (P43403 whole entry): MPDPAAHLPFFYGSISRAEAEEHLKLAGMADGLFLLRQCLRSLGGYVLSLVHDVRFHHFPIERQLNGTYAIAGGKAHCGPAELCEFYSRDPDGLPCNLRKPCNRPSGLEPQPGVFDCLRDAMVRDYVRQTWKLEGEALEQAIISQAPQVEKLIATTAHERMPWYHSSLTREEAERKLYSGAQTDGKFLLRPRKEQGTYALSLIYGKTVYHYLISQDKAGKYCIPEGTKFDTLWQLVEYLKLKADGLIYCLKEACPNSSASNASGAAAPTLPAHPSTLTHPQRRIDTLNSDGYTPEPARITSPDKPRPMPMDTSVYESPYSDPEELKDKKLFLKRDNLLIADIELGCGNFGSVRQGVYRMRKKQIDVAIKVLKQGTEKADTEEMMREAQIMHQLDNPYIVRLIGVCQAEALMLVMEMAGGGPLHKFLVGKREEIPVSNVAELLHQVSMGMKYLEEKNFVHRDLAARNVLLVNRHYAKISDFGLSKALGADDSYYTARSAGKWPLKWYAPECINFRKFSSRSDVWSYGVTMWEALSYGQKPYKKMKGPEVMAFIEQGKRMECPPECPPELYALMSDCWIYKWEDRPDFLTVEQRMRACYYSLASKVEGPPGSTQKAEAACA
Procedure, shortened: as §1

Fyn_h = target: T9, Fyn_h (Homo sapiens, UniProt P06241); settings: KM ATP, read-out: % control
T9 construct: purchased Life Technologies (Invitrogen) SelectScreen, Z'-LYTE / Adapta
Procedure, shortened: as §1

CHK1_h = target: T10, CHK1_h (Homo sapiens, UniProt O14757); settings: KM ATP, read-out: % control
T10 construct: purchased Life Technologies (Invitrogen) SelectScreen, Z'-LYTE / Adapta
Procedure, shortened: as §1

Hgk_h = target: T11, Hgk_h (Homo sapiens, UniProt O95819); settings: KM ATP, read-out: % control
T11 construct: purchased Life Technologies (Invitrogen) SelectScreen, Z'-LYTE / Adapta
Procedure, shortened: as §1

CDK2_cyclinA_h = target: T12, CDK2_cyclinA_h (Homo sapiens, UniProt P24941); settings: KM ATP, read-out: % control
T12 construct: purchased Life Technologies (Invitrogen) SelectScreen, Z'-LYTE / Adapta
Procedure, shortened: as §1

Tyk2_h = Tyk2_h (Homo sapiens, UniProt P29597)
Chain of Tyk2_h (P29597 whole entry): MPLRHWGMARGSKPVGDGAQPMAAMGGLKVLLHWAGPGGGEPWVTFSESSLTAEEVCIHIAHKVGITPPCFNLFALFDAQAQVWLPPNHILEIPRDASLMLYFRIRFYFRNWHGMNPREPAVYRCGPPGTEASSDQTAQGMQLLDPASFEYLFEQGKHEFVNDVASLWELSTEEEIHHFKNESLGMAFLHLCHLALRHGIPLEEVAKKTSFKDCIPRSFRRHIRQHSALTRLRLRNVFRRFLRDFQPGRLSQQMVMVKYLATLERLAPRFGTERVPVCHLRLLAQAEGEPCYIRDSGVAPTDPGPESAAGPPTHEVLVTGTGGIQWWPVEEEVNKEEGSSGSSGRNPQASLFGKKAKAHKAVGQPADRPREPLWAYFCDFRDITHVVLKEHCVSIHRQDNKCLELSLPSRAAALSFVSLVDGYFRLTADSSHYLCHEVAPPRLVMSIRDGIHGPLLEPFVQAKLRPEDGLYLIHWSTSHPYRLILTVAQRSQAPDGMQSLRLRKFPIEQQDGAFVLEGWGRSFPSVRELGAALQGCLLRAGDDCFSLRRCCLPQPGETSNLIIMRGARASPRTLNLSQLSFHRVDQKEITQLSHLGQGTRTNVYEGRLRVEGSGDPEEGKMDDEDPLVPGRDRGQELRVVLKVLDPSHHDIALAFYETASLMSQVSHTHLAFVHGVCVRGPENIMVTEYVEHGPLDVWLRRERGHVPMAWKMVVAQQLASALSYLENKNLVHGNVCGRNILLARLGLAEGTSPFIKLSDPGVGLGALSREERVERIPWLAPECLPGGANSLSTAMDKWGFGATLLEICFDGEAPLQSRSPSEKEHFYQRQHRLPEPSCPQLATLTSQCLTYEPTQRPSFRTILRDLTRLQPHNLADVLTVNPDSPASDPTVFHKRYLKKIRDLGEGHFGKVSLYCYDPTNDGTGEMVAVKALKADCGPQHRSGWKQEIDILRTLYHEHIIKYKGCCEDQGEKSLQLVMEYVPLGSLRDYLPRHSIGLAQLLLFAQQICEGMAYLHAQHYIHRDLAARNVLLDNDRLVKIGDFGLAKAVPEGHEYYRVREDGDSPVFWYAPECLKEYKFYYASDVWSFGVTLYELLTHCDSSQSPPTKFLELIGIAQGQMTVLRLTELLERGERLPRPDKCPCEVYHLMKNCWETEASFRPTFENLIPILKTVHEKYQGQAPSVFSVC
Procedure, shortened: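 Kinase activity measured by Z'-Lyte or Adapta protocols. Single-point testing used 3 µM compound with ATP at the enzyme's KM, or at 10 or 100 µM as indicated. Values given as % control versus DMSO-only wells (100%).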

MARK1_h = target: T13, MARK1_h (Homo sapiens, UniProt Q9P0L2); settings: KM ATP, read-out: % control
T13 construct: purchased Life Technologies (Invitrogen) SelectScreen, Z'-LYTE / Adapta
T13 sequence (Q9P0L2 whole entry): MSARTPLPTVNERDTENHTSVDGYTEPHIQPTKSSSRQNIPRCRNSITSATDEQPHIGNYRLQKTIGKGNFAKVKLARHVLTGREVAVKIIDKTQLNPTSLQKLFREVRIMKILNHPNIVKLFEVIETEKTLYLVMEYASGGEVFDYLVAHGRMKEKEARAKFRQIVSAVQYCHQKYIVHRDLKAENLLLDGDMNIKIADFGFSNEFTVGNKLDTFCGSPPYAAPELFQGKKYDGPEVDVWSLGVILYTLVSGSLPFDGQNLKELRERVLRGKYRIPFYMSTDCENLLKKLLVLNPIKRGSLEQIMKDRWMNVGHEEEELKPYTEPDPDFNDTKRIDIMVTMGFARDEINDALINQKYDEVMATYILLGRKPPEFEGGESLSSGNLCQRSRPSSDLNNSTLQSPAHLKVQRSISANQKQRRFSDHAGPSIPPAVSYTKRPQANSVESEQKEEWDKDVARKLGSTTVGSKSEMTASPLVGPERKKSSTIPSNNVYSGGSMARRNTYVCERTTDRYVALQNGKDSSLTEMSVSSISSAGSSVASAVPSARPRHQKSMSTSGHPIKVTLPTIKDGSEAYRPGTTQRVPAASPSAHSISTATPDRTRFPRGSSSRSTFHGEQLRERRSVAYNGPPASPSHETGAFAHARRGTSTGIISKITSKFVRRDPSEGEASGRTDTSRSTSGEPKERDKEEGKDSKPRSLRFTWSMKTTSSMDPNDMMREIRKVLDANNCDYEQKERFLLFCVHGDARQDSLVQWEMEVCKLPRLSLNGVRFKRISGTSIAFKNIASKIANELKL
Procedure, shortened: as §1

Pim-1_h = target: T14, Pim-1_h (Homo sapiens, UniProt P11309); settings: KM ATP, read-out: % control
T14 construct: purchased Life Technologies (Invitrogen) SelectScreen, Z'-LYTE / Adapta
Procedure, shortened: as §1

PAK6_h = target: T15, PAK6_h (Homo sapiens, UniProt Q9NQU5); settings: KM ATP, read-out: % control
T15 construct: purchased Life Technologies (Invitrogen) SelectScreen, Z'-LYTE / Adapta
Procedure, shortened: as §1

LRRK2_h = target: T16, LRRK2_h (Homo sapiens, UniProt Q5S007); settings: KM ATP, read-out: % control
T16 construct: purchased Life Technologies (Invitrogen) SelectScreen, Z'-LYTE / Adapta
Procedure, shortened: as §1

Yes_h = target: T17, Yes_h (Homo sapiens, UniProt P07947); settings: KM ATP, read-out: % control
T17 construct: purchased Life Technologies (Invitrogen) SelectScreen, Z'-LYTE / Adapta
Procedure, shortened: as §1

EphB2_h = target: T18, EphB2_h (Homo sapiens, UniProt P29323); settings: KM ATP, read-out: % control
T18 construct: purchased Life Technologies (Invitrogen) SelectScreen, Z'-LYTE / Adapta
Procedure, shortened: as §1

SRPK1_h = target: T19, SRPK1_h (Homo sapiens, UniProt Q96SB4); settings: KM ATP, read-out: % control
T19 construct: purchased Life Technologies (Invitrogen) SelectScreen, Z'-LYTE / Adapta
Procedure, shortened: as §1

DAPK1_h = target: T20, DAPK1_h (Homo sapiens, UniProt P53355); settings: KM ATP, read-out: % control
T20 construct: purchased Life Technologies (Invitrogen) SelectScreen, Z'-LYTE / Adapta
Procedure, shortened: as §1

SRPK2_h = target: T21, SRPK2_h (Homo sapiens, UniProt P78362); settings: KM ATP, read-out: % control
T21 construct: purchased Life Technologies (Invitrogen) SelectScreen, Z'-LYTE / Adapta
Procedure, shortened: as §1

Hck_h = target: T22, Hck_h (Homo sapiens, UniProt P08631); settings: KM ATP, read-out: % control
T22 construct: purchased Life Technologies (Invitrogen) SelectScreen, Z'-LYTE / Adapta
T22 sequence (P08631 whole entry): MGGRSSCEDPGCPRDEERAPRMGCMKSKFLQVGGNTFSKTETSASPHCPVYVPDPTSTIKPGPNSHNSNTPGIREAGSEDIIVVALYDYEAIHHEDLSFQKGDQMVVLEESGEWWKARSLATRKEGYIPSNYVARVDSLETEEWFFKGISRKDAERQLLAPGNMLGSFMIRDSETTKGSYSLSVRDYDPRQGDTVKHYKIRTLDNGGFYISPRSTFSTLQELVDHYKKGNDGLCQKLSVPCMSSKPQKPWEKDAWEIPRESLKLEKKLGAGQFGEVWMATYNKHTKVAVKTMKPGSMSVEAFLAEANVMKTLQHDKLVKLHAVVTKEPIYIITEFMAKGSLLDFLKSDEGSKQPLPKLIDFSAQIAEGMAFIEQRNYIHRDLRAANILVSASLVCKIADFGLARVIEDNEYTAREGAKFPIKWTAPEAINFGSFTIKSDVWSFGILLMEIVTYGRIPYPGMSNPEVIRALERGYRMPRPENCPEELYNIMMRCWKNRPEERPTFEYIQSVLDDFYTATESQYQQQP
Procedure, shortened: as §1

Fms_h = Fms_h (Homo sapiens, UniProt P07333)
Chain of Fms_h (P07333 20-972): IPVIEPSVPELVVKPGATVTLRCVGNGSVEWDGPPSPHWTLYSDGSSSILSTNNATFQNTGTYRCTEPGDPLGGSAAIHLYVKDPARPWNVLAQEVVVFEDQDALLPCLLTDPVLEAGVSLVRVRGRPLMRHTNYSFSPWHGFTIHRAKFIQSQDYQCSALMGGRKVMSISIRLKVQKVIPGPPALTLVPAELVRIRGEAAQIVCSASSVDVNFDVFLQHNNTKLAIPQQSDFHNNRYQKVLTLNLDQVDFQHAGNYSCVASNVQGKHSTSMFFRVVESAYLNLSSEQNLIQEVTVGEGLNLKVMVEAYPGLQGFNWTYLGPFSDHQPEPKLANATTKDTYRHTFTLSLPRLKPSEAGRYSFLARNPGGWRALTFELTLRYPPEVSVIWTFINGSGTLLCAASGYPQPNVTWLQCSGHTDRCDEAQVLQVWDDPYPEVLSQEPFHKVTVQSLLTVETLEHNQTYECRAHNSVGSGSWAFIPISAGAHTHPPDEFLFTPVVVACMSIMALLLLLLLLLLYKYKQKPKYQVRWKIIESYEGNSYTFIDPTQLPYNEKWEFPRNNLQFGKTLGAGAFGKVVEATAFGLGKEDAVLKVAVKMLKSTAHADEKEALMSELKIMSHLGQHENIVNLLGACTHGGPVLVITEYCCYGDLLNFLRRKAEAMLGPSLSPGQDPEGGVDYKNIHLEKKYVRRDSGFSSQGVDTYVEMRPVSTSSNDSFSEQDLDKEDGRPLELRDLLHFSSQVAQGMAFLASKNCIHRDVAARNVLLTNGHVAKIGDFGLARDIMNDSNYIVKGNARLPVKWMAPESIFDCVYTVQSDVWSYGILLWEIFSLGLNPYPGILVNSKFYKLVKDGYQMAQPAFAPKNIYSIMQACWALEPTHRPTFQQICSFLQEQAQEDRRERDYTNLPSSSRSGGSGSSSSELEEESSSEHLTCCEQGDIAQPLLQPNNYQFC
Procedure, shortened: as §1

IKK1_h = target: T23, IKK1_h (Homo sapiens, UniProt O15111); settings: KM ATP, read-out: % control
T23 construct: purchased Life Technologies (Invitrogen) SelectScreen, Z'-LYTE / Adapta
Procedure, shortened: as §1

CSK_h = target: T24, CSK_h (Homo sapiens, UniProt P41240); settings: KM ATP, read-out: % control
T24 construct: purchased Life Technologies (Invitrogen) SelectScreen, Z'-LYTE / Adapta
T24 sequence (P41240 whole entry): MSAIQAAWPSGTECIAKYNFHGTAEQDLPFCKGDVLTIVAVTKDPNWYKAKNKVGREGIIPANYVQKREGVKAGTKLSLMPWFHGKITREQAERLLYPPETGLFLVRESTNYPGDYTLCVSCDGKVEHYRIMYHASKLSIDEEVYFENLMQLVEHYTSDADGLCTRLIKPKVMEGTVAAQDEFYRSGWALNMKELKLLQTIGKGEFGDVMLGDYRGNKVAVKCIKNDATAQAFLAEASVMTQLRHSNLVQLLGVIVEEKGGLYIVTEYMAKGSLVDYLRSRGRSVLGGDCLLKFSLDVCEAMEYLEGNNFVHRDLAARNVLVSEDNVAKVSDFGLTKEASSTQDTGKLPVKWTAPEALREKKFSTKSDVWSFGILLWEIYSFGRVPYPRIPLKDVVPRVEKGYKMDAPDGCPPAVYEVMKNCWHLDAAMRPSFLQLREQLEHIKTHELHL
Procedure, shortened: as §1

CLK1_h = target: T25, CLK1_h (Homo sapiens, UniProt P49759); settings: KM ATP, read-out: % control
T25 construct: purchased Life Technologies (Invitrogen) SelectScreen, Z'-LYTE / Adapta
Procedure, shortened: as §1

FGFR3_h = target: T26, FGFR3_h (Homo sapiens, UniProt P22607); settings: KM ATP, read-out: % control
T26 construct: purchased Life Technologies (Invitrogen) SelectScreen, Z'-LYTE / Adapta
Procedure, shortened: as §1

MuSK_h = target: T27, MuSK_h (Homo sapiens, UniProt O15146); settings: KM ATP, read-out: % control
T27 construct: purchased Life Technologies (Invitrogen) SelectScreen, Z'-LYTE / Adapta
Procedure, shortened: as §1

MEK1_h = target: T28, MEK1_h (Homo sapiens, UniProt Q02750); settings: 100 µM ATP, read-out: % control
T28 construct: purchased Life Technologies (Invitrogen) SelectScreen, Z'-LYTE / Adapta
Procedure, shortened: as §1

EphA8_h = target: T29, EphA8_h (Homo sapiens, UniProt P29322); settings: KM ATP, read-out: % control
T29 construct: purchased Life Technologies (Invitrogen) SelectScreen, Z'-LYTE / Adapta
Procedure, shortened: as §1

ROCK-II_h = target: T30, ROCK-II_h (Homo sapiens, UniProt O75116); settings: KM ATP, read-out: % control
T30 construct: purchased Life Technologies (Invitrogen) SelectScreen, Z'-LYTE / Adapta
Procedure, shortened: as §1

[1] = 3 µM, KM ATP, read-out: % control
[2] = 10-point dose-response, commercial vendor

c1cc(CC2CCOCC2)n2nc(Nc3ccc4c(NC5CCOCC5)n[nH]c4c3)nc2c1 [CC-509, [3-(2H-3,4,5,6-tetrahydropyran-4-ylamino)(1H-indazol-6-yl)][5-(2H-3,4,5,6-tetrahydropyran-4-ylmethyl)(2H-1,2,4-triazolo[1,5-a]pyridin-2-yl)]amine]
remaining activity at 3 µM (HIPK2_h): 96% | remaining activity at 3 µM (CK1-gamma1_h): 54% | remaining activity at 3 µM (LYN-A_h; [1]): 54% | IC50 (LYN-A_h; [2]): 3.58 µM | remaining activity at 3 µM (CaMKIV_h): 100% | remaining activity at 3 µM (MST4_h): 99% | remaining activity at 3 µM (CDK7_h): 94% | remaining activity at 3 µM (Fer_h): 40% | remaining activity at 3 µM (PKD3_h): 37% | remaining activity at 3 µM (IGF-1R_h): 97% | remaining activity at 3 µM (ZAP-70_h; [1]): 70% | IC50 (ZAP-70_h; [2]): > 3 µM | remaining activity at 3 µM (Fyn_h): 74% | remaining activity at 3 µM (CHK1_h): 94% | remaining activity at 3 µM (Hgk_h): 62% | remaining activity at 3 µM (CDK2_cyclinA_h): 64% | remaining activity at 3 µM (Tyk2_h; [1]): 3% | IC50 (Tyk2_h; [2]): 110 nM and 112 nM | remaining activity at 3 µM (MARK1_h): 48% | remaining activity at 3 µM (Pim-1_h): 101% | remaining activity at 3 µM (PAK6_h): 91% | remaining activity at 3 µM (LRRK2_h): 3% | remaining activity at 3 µM (Yes_h): 54% | remaining activity at 3 µM (EphB2_h): 75% | remaining activity at 3 µM (SRPK1_h): 98% | remaining activity at 3 µM (DAPK1_h): 104% | remaining activity at 3 µM (SRPK2_h): 111% | remaining activity at 3 µM (Hck_h): 71% | remaining activity at 3 µM (Fms_h; [1]): 2% | IC50 (Fms_h; [2]): 8.61 nM | remaining activity at 3 µM (IKK1_h): 106% | remaining activity at 3 µM (CSK_h): 70% | remaining activity at 3 µM (CLK1_h): 82% | remaining activity at 3 µM (FGFR3_h): 68% | remaining activity at 3 µM (MuSK_h): 41% | remaining activity at 3 µM (MEK1_h): 65% | remaining activity at 3 µM (EphA8_h): 91% | remaining activity at 3 µM (ROCK-II_h): 69%
